Experiments:
[1] = pKa determination of E-P a-dH+ by UV-Vis titration; format: physicochemical; settings: acidity constant of the cationic E form, water, 20 mM phosphate buffer, 298 K, triplicate
Excerpt: With the photovermellogens synthesized and fully characterized, their acid–base properties were next investigated by UV–vis spectroscopy to determine whether the pH-responsiveness characteristic of parent vermellogens was retained. Indeed, P a–dH·Cl reproduced the archetypical absorption changes of vermellogens (Figures c and S130–S137, SI1). , In essence, the characteristic intense π–π* absorption bands of the cations undergo a considerable bathochromic shift upon deprotonation (Table ), as also confirmed by our quantum chemical calculations (Figure S2, S2), causing a notable color change from yellow to red. This pronounced shift allowed the estimation of pK a values for E-P a–dH^+ via UV–vis absorption titrations, which, as for other vermellogens, fall within the biologically relevant pH range (Figure c, Table and Figures S130–S137, SI1). Changes in the protonation state were also easily monitored by ^1H NMR spectroscopy, with the gain in electronic density translating in a substantial shielding of resonances of the corresponding conjugate bases E/Z-P a–d (Figure a). As already observed for E-P a–dH^+, the deprotonated species were also thermally stable in the absence of light.
4. Determination of pK a values for E-P a-dH+ by UV-Vis spectroscopy.
All the experiments were recorded on a Jasco V-650 spectrometer. […] Considering the previously reported behaviour of vermellogens,5 UV-Vis spectra were initially recorded in the 4-12 pH range, to qualitatively determine in each case the presence or absence of characteristic absorption bands for the acidic-basic forms of the compounds. From the qualitative data, UV-Vis titrations were recorded in the appropriate pH range for each […]
Figure S132. UV-Vis spectra of P bH·Cl at pH 5 (black) and pH 12 (red) at 20 µM. b) Linear relationship at pH 5 between absorbance at 378 nm and concentration of P bH·Cl (ε = 42265 ± 838 L·mol -1·cm-1). c) Linear relationship at pH 12 between absorbance at 456 nm and concentration of P bH·Cl (ε = 42143 ± 1044 L·mol -1·cm-1). […]
Figure S134. UV-Vis spectra of P cH·Cl at pH 6 (black) and pH 12 (red) at 14 µM. b) Linear relationship at pH 6 between absorbance at 350 nm and concentration of P cH·Cl (ε = 49266 ± 1780 L·mol-1·cm-1). c) Linear relationship at pH 12 between absorbance at 433 nm and concentration of P cH·Cl (ε = 46382 ± 1667 L·mol -1·cm-1). […]
Figure S136. UV-Vis spectra of P dH·Cl at pH 6 (red) and pH 13 (black) at 11 µM. b) Linear relationship at pH 6 between absorbance at 411 nm and concentration of P dH·Cl (ε = 65691 ± 2966 L·mol-1·cm-1). c) Linear relationship at pH 13 between absorbance at 500 nm and concentration of P dH·Cl (ε = 69154 ± 3100 L·mol -1·cm-1). […]

[2] = Photostationary state distribution by 1H NMR integration; format: physicochemical; settings: pD 6; for PSD E→Z (photostationary state distribution): irradiation at 254 nm; for PSD Z→E (photostationary state distribution): irradiation at >420 nm
Excerpt: Photoisomerization studies were subsequently carried out in acidic medium (pH = pK a – 2) in order to assess the photoresponse of the protonated species. Under these conditions, the anticipated photoisomerization of the thermally stable E-P a–dH^+ species was investigated by UV–vis absorption spectroscopy under irradiation at 254 nm. […] It is noteworthy that the irradiation wavelength can be extended to 365 nm, yielding virtually the same observations as for 254 nm irradiation (see footnotes of Table ). Irradiation also produced clear NMR spectral changes that support the occurrence of the E→Z isomerization. In essence, the signals Hf–h of the phenyl moiety were only slightly affected, whereas those of the pyridinium and acylhydrazone fragments shifted markedly, consistent with the formation of an intramolecular hydrogen bond in the Z-P a–cH^+ species. The reverse Z→E transformation of the protonated forms P a–cH^+ was also achieved upon irradiation at λ > 420 nm, giving lower quantum yields and less favorable PSDs (Figures S145–S147, S149–154, S1).

Structure (SMILES) | pK a (E-PH^+) [1] | PSD E→Z (photostationary state distribution) [2] | PSD Z→E (photostationary state distribution) [2]
C[n+]1ccc(NN=CC(=O)c2ccccc2)c2ccccc21 [P bH^+] | 7.2 ± 0.1 | 93% Z | 57% E
C[n+]1ccc(-c2ccc(NN=CC(=O)c3ccccc3)cc2)cc1 [P dH^+] | 11.2 ± 0.1 |  | 
O=C(C=NNc1cc[n+](-c2ccccc2)cc1)c1ccccc1 [P cH^+] | 7.8 ± 0.1 | 98% Z | 55% E
C[n+]1ccc(NN=CC(=O)c2ccccc2)cc1 [P aH^+] | 8.8 ± 0.2 | 93% Z | 67% E

— publication PMC13185115, “Photovermellogens: Minimalistic Pyridinium-Based Acylhydrazones with Photoswitchable Basicity for Operation in Aqueous Media” (The Journal of Organic Chemistry, 2026)
